Values quoted from earlier work as cited in patent publication US10206884B2, “Microcapsules with polymeric coating comprising a lipid and an active agent” (FRESENIUS KABI DEUTSCHLAND GMBH, priority 2013, dated 2019).

- solubility in water: only poorly soluble in water
Compound: CCCC(=O)OCC(COC(=O)CCC)OC(=O)CCC [tributyrin, 1,3-di(butanoyloxy)propan-2-yl butanoate]
